In patent US20060198832A1, “Peptide drugs for chronic lymphocytic leukemia (CLL) and other cancers” (priority 2004, published 2006):
Where a SMILES comes first, the peptide text is derived from it. Bridges are numbered along the chain shown (N, C = ends). Roman numbers before positions name the chains, in order. Where no end group is shown, it is not given here. [ ]: non-standard residue; d: D form. Ahx = NCCCCCC(=O)O

Experiments:
[1] = tested on: acute myelogenous leukemia (AML) cells; assay: cell viability/apoptosis in patient AML cells; type: cell-based, human
Method: (§1) The peptides were tested in cell viability assays essentially as described above in Examples I and II. Experiments were carried out in 697-neo and 697-Bcl-2 cells. 697 cells are from a cell line of preB leukemic cells. 697-Bcl-2 cells have been engineered to express high levels of Bcl-2. AML-349 and AML-728 are myeloblasts (verified by FACS analysis via CD34-positivity) that were isolated from respective patients with acute myelogenous leukemia (AML).

[2] = molecular target: Bcl-2 family Bcl-2/x1 (Homo sapiens, UniProt P10415); assay: binding of penetratin-linked peptides to Bcl-2 (method not described)
[3] = tested on: 697-neo cells; assay: cell viability assay in 697-neo cells; type: cell-based; settings: low Bcl-2, FIG. 6
Method: as §1

[4] = Letai et al., Cancer Cell 2:183-192 (2002); cited from earlier work
[5] = tested on: chronic lymphocytic leukemia (CLL) cells; assay: viability/apoptosis of CLL cells electroporated with peptides (Annexin V-FITC/PI flow cytometry); type: cell-based, human; settings: for cell viability (Induction of Apoptosis in CLL Cells), patient sample JCB 178: CLL patient sample JCB 178; for cell viability (Induction of Apoptosis in CLL Cells), patient sample JCB 178 / cell viability (Induction of Apoptosis in CLL Cells), patient sample MA G15 / cell viability (Induction of Apoptosis in CLL Cells), patient sample TJK 328 / cell viability (Induction of Apoptosis in CLL Cells), patient sample TJK 340 #1 / cell viability (Induction of Apoptosis in CLL Cells), patient sample TJK 340 #2 / cell viability (Induction of Apoptosis in CLL Cells), patient sample TJK 375 / cell viability (Induction of Apoptosis in CLL Cells), Av.: peptide electroporated; for cell viability (Induction of Apoptosis in CLL Cells), patient sample TJK 328: CLL patient sample TJK 328; for cell viability (Induction of Apoptosis in CLL Cells), patient sample TJK 340 #1: CLL patient sample TJK 340 #1; for cell viability (Induction of Apoptosis in CLL Cells), patient sample TJK 340 #2: CLL patient sample TJK 340 #2; for cell viability (Induction of Apoptosis in CLL Cells), patient sample TJK 375: CLL patient sample TJK 375; for cell viability (Induction of Apoptosis in CLL Cells), Av.: average of the five preceding patient sample columns; for cell viability of CLL cells / cell viability in all the patient CLL samples: electroporated peptide; for cell viability of CLL cells: FIG. 2; for cell viability in all the patient CLL samples: summary of Table 4
Description: Peripheral blood mononuclear cells (PBMC) from patients with chronic lymphocytic leukemia (CLL) were obtained from the CLL Research Consortium (CRC) tissue bank. Briefly, heparinized peripheral blood was obtained from patients diagnosed with B-CLL according to standard criteria (Chenson et al., Blood 87:4990-4997 (1996)). Lymphocytes were isolated by Ficoll density-gradient centrifugation and verified by immunofluorescence flow cytometry to be composed of greater than 95% CD5/CD19/CD23 triple positive B cells. […] CLL cells were electroporated with a dimethyl sulfoxide (DMSO) control or peptides essentially as described in […] et al., J. Immunol. Methods 275:41-56 (2003), and […] et al., Cancer Res. 63:1242-1248 (2003). For evaluation of apoptosis, at least 5×10^5 cells were recovered by centrifugation and double-stained with Annexin V-FITC, an early marker of apoptosis, and propidium iodide (PI), a nucleic acid-binding vital dye, followed by flow-cytometric analysis using the FL-1 and FL-3 channels of a Becton Dickinson flow cytometer (FACSort; San Jose, Calif.).

[6] = molecular target: BCL-2 (Homo sapiens, UniProt P10415); settings: Letai et al., Cancer Cell 2:183-192 (2002); cited from earlier work
[7] = tested on: Bcl-2; assay: BD Cytometric Bead Assay of Bcl-2 levels in peptide treated CLL cells; type: cell-based, human; settings: TJK160 and TJK357 CLL patient cells, incubated with peptide for four hours, FIG. 5
Method: TJK160 and TJK357 CLL patient cells were treated with the modified BAD peptide SEQ ID NO: 6 or with control peptides SEQ ID NO: 29 and SEQ ID NO: 30 essentially as described above. To determine the levels of Bcl-2 in each of the peptide treated CLL samples, a BD™ Cytometric Bead Assay (BD CBA; BD Biosciences) was used to quantitatively measure active caspase-3, cleaved PARP and Bcl-2 levels in a single sample. In this assay, soluble analytes are measured using amplified fluorescence detection and flow cytometry, with each bead in a CBA providing a capture surface for a specific protein and being analogous to an individually coated well in an ELISA plate. A single bead population with a distinct fluorescence intensity is coated with a capture antibody specific for active caspase-3 protein, cleaved PARP protein or Bcl-2 protein and subsequently resolved in the FL3 channel of a BD FACSTM brand flow cytometer. The capture bead, PE-conjugated detection antibody, and cell lysate standard or test samples are incubated together to form sandwich complexes and analyzed using BD CBA Analysis Software. Cells were lysed in 1× CBA Cell Lysis Buffer supplemented with Protease Inhibitor Cocktail according to the manufacturer's protocol. Human active caspase-3, cleaved PARP and Bcl-2 lysate standards were reconstituted in deionized water at room temperature for 15 minutes. The standard was diluted by serial dilutions using assay diluent according to the manufacturer's protocol. Capture beads were vortexed before use, and 50 μl of capture beads were transferred to each assay tube. Standard dilutions and test samples were added to the appropriate sample tubes (50 μl/tube) and incubated at room temperature for one hour. […] After addition of 300 μl of Wash Buffer, samples were analyzed by the BD FACScan or BD FACSCalibur. Samples were analyzed by the use of BD CellQuest Software, and data were acquired by the use of the BD CBA Software. […]

[8] = tested on: CLL cells; assay: CLL cell viability, cell permeable peptides added directly to culture without electroporation; type: cell-based, human; settings: for change in viability: TJK197 patient CLL cells, FIG. 4
Description: Peripheral blood mononuclear cells (PBMC) from patients with chronic lymphocytic leukemia (CLL) were obtained from the CLL Research Consortium (CRC) tissue bank. Briefly, heparinized peripheral blood was obtained from patients diagnosed with B-CLL according to standard criteria (Chenson et al., Blood 87:4990-4997 (1996)). Lymphocytes were isolated by Ficoll density-gradient centrifugation and verified by immunofluorescence flow cytometry to be composed of greater than 95% CD5/CD19/CD23 triple positive B cells. CLL samples were incubated at 1×10^6 cells/ml in RPMI media supplemented with 10% FBS (fetal bovine serum) and 1 mM L-glutamine and antibiotics (penicillin/streptomycin) at 37° C. with 5% CO2 for 24 hours. CLL cells were electroporated with a dimethyl sulfoxide (DMSO) control or peptides essentially as described in Eksioglu-Demiralp et al., J. Immunol. Methods 275:41-56 (2003), and Schimmer et al., Cancer Res. 63:1242-1248 (2003).
For evaluation of apoptosis, at least 5×10^5 cells were recovered by centrifugation and double-stained with Annexin V-FITC, an early marker of apoptosis, and propidium iodide (PI), a nucleic acid-binding vital dye, followed by flow-cytometric analysis using the FL-1 and FL-3 channels of a Becton Dickinson flow cytometer (FACSort; San Jose, Calif.).
The wild type and modified BAD peptides fused to poly-arginine cell penetration sequences shown in Table 5 were synthesized by standard solid phase synthesis. CLL cell viability assays were performed as described above except that cell permeable peptides SEQ ID NOS: 28, 6 and 29 and the control, non-permeable peptide SEQ ID NO: 3 (see Table 5) were added directed to CLL cells in culture without electroporation.

[9] = molecular target: T1, Bcl-2 (UniProt P10415 1-239, limits assumed); assay: inferred from cell viability of 697-neo against 697-Bcl2 cells
T1 construct: also called Bcl-2 protein
T1 sequence (P10415 whole entry): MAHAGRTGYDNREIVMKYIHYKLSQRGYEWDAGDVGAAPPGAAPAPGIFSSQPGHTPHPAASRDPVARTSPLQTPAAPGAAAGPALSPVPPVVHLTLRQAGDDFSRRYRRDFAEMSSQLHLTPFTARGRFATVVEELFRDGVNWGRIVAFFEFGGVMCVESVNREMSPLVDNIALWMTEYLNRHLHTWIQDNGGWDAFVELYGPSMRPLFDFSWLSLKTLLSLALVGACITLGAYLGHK

Bcl-2 family Bcl-2/x1, sequence (P10415 1-205): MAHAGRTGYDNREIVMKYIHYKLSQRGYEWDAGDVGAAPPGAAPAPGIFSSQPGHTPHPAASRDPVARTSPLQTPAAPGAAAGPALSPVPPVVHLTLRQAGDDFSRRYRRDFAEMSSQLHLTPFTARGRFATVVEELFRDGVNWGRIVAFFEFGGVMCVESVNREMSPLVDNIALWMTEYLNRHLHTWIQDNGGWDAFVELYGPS
BCL-2, sequence (P10415 whole entry, species assumed): as the sequence (P10415 whole entry) above

acetyl-NLWAAQRYGRELRRMADEFVDAFKKC-CRQIKIWFQNRRMKWKK-amide [2336] (D-residues; cyclised or stapled) [compound 2336]
induction of apoptosis / killing ([1]; AML cells of patient AML-349, FIG. 9): showed less killing | induction of apoptosis ([1]; AML cells of patient AML-728, FIG. 8): does not | binding to Bcl-2 [2]: does not bind Bcl-2 family Bcl-2/x1 | activity in reducing cell viability [3]: significantly less active than the 2335 peptide

CSCC[C@H](NC(=O)[C@H](CCCNC(=N)N)NC(=O)[C@H](CCCNC(=N)N)NC(=O)[C@H](CC(C)C)NC(=O)[C@H](CCC(=O)O)NC(=O)[C@H](CCCNC(=N)N)NC(=O)CNC(=O)[C@H](Cc1ccc(O)cc1)NC(=O)[C@H](CCCNC(=N)N)NC(=O)[C@H](CCC(N)=O)NC(=O)[C@H](C)NC(=O)[C@H](C)NC(=O)[C@H](Cc1c[nH]c2ccccc12)NC(=O)[C@H](CC(C)C)NC(=O)[C@@H](N)CC(N)=O)C(=O)N[C@@H](CO)C(=O)N[C@@H](CC(=O)O)C(=O)N[C@@H](CCC(=O)O)C(=O)N[C@@H](Cc1ccccc1)C(=O)N[C@H](C(=O)N[C@@H](CC(=O)O)C(=O)N[C@@H](CO)C(=O)N[C@@H](Cc1ccccc1)C(=O)N[C@@H](CCCCN)C(=O)N[C@@H](CCCCN)C(=O)O)C(C)C [SEQ ID NO: 1]
apoptotic activity [4]: does not have apoptotic activity | cell viability (Induction of Apoptosis in CLL Cells), patient sample JCB 178 [5]: 45% | cell viability (Induction of Apoptosis in CLL Cells), patient sample MA G15 [5]: 4% | cell viability (Induction of Apoptosis in CLL Cells), patient sample TJK 328 [5]: 42% | cell viability (Induction of Apoptosis in CLL Cells), patient sample TJK 340 #1 [5]: 46% | cell viability (Induction of Apoptosis in CLL Cells), patient sample TJK 340 #2 [5]: 56% | cell viability (Induction of Apoptosis in CLL Cells), patient sample TJK 375 [5]: 47% | cell viability (Induction of Apoptosis in CLL Cells), Av. [5]: 47% | cell viability of CLL cells [5]: minimal or insignificant changes in viability | cell viability in all the patient CLL samples [5]: minimally effected | Kd [6]: ~40 nM

AVPIAQK-Ahx-(DArg)8 (AVPIAQK[Ahx][dR][dR][dR][dR][dR][dR][dR][dR]) [SEQ ID NO: 30, control peptide with poly(DArg)]
intracellular levels of Bcl-2 [7]: not observed

CSCC[C@H](NC(=O)[C@H](CCCNC(=N)N)NC(=O)[C@H](CCCNC(=N)N)NC(=O)[C@H](CC(C)C)NC(=O)[C@H](CCC(=O)O)NC(=O)[C@H](CCCNC(=N)N)NC(=O)CNC(=O)[C@H](Cc1ccc(O)cc1)NC(=O)[C@H](CCCNC(=N)N)NC(=O)[C@H](CCC(N)=O)NC(=O)[C@H](C)NC(=O)[C@H](C)NC(=O)[C@H](Cc1c[nH]c2ccccc12)NC(=O)[C@H](CC(C)C)NC(=O)[C@@H](N)CC(N)=O)C(=O)N[C@@H](C)C(=O)N[C@@H](CC(=O)O)C(=O)N[C@@H](CCC(=O)O)C(=O)N[C@@H](Cc1ccccc1)C(=O)N[C@H](C(=O)N[C@@H](CC(=O)O)C(=O)N[C@@H](C)C(=O)N[C@@H](Cc1ccccc1)C(=O)N[C@@H](CCCCN)C(=O)N[C@@H](CCCCN)C(=O)N[C@@H](CS)C(=O)NCCCCCC(=O)N[C@H](CCCNC(=N)N)C(=O)N[C@H](CCCNC(=N)N)C(=O)N[C@H](CCCNC(=N)N)C(=O)N[C@H](CCCNC(=N)N)C(=O)N[C@H](CCCNC(=N)N)C(=O)N[C@H](CCCNC(=N)N)C(=O)N[C@H](CCCNC(=N)N)C(=O)N[C@H](CCCNC(=N)N)C(=O)O)C(C)C [SEQ ID NO: 6] (H-NLWAAQRYGRELRRMADEFVDAFKKC[Ahx][dR][dR][dR][dR][dR][dR][dR][dR]-OH; N-terminus and C-terminus assumed)
cell viability, dose response ([8]; patient TJK379 CLL cells, FIG. 3): dose-dependent decrease in cell viability | percentage cell viability ([8]; patient TJK379 CLL cells, as little as 15 μM peptide): dramatically reduced | intracellular levels of Bcl-2 [7]: significant reduction in intracellular levels of Bcl-2

NLWAAQRYGREARRMAAEFVDAFKK [SEQ ID NO: 4]
cell viability (Induction of Apoptosis in CLL Cells), patient sample JCB 178 [5]: 38% | cell viability (Induction of Apoptosis in CLL Cells), patient sample MA G15 [5]: 20% | cell viability (Induction of Apoptosis in CLL Cells), patient sample TJK 328 [5]: 26% | cell viability (Induction of Apoptosis in CLL Cells), patient sample TJK 340 #1 [5]: 46% | cell viability (Induction of Apoptosis in CLL Cells), patient sample TJK 340 #2 [5]: 45% | cell viability (Induction of Apoptosis in CLL Cells), patient sample TJK 375 [5]: 48% | cell viability (Induction of Apoptosis in CLL Cells), Av. [5]: 41% | cell viability of CLL cells [5]: minimal or insignificant changes in viability | cell viability in all the patient CLL samples [5]: minimally effected

NLWAAQRYGREARRMAAEFVDAFKKC-Ahx-(DArg)8 (NLWAAQRYGREARRMAAEFVDAFKKC[Ahx][dR][dR][dR][dR][dR][dR][dR][dR]) [SEQ ID NO: 29, control BAD peptide with poly(DArg)]
change in viability [8]: no change in viability | intracellular levels of Bcl-2 [7]: not observed

NLWAAQRYGRELRRMSDEFVDSFKKC-Ahx*-(DArg)8 (NLWAAQRYGRELRRMSDEFVDSFKKC[Ahx][dR][dR][dR][dR][dR][dR][dR][dR]) [SEQ ID NO: 28]
change in viability [8]: no change in viability | effect on cell viability ([8]; patient TJK379 CLL cells, even at 50 μM): negligible effect | cell viability of cancer cells (concluding statement) ([8]; poly-arginine fused peptide, CLL cells): dramatically reduce cell viability

B1: 2335 peptide, acetyl-NLWAAQRYGRELRRMADEFVDAFKKC-CRQIKIWFQNRRMKWKK-amide (SEQ ID NO: 31) (peptide)
peptide 1: Ac-NLWAAQRYGRELRRMADEFVDAFKKC
peptide 2: CRQIKIWFQNRRMKWKK-NH2
modifications: disulfide I:26-II:1
notes: C-C is a disulfide between two peptides, so it is written here as two chains; also called Bad S/A peptide disulfide linked to penetratin; BAD-BH3 peptide
binding result [9]: binds
